Test results taken from the NIST ThermoML archive (doi:10.1021/je800395m).
“And” between values parts separate entries of the source, which are not always exact repeats. Equal values may be shown once.

Conditions: for Normal melting temperature: DTA

c1ccc2cc3ccccc3cc2c1 [anthracene]
Crystal, Calculated from knudsen effusion weight loss
Conditions | vapor or sublimation pressure
319.6 K | 1.3e-05 kPa and 1.29e-05 kPa
323.9 K | 2.14e-05 kPa
326.8 K | 3.04e-05 kPa
326.9 K | 3e-05 kPa
331.7 K | 5.29e-05 kPa
332.1 K | 5.32e-05 kPa
332.2 K | 5.41e-05 kPa
334 K | 6.51e-05 kPa
334.2 K | 6.59e-05 kPa
337 K | 9.16e-05 kPa
339.4 K | 0.0001131 kPa
342 K | 0.0001487 kPa
349.7 K | 0.0003165 kPa and 0.0003121 kPa
354.8 K | 0.0005077 kPa

CC[C@H](CC[C@@H](C)[C@H]1CC[C@H]2[C@@H]3CC=C4C[C@@H](O)CC[C@]4(C)[C@H]3CC[C@]12C)C(C)C [β-sitosterol]
Crystal, Calculated from knudsen effusion weight loss
Conditions | vapor or sublimation pressure [kPa]
389.9 K | 9.4e-06
392.4 K | 1.27e-05
395.2 K | 1.72e-05
397.7 K | 2.23e-05
400.3 K | 2.99e-05
405.6 K | 5.2e-05
410.7 K | 9.02e-05

Conditions | Normal melting temperature [°C]
Crystal | 138

CC[C@H](/C=C/[C@@H](C)[C@H]1CC[C@H]2[C@@H]3CC=C4C[C@@H](O)CC[C@]4(C)[C@H]3CC[C@]12C)C(C)C [(22E)-stigmasta-5,22-dien-3β-ol]
Crystal, Calculated from knudsen effusion weight loss
Conditions | vapor or sublimation pressure [kPa]
390.9 K | 3.9e-06
392 K | 4.6e-06
393.5 K | 5.6e-06
396.1 K | 8.2e-06
397.2 K | 9.4e-06
398.7 K | 1.15e-05
401.2 K | 1.61e-05
403.9 K | 2.2e-05
406.3 K | 2.96e-05
408.9 K | 4.11e-05
411.5 K | 5.38e-05
414 K | 7.23e-05
416.6 K | 9.54e-05

Conditions | Normal melting temperature [°C]
Crystal | 162

c1ccc2cc3cc4ccccc4cc3cc2c1 [2,3-benzanthracene]
Crystal 2
Conditions | vapor or sublimation pressure [kPa]
399 K | 1.46e-05
404.4 K | 2.1e-05
405.6 K | 2.55e-05
409.5 K | 3.39e-05
410.6 K | 4.22e-05
414.6 K | 5.42e-05
415.8 K | 6.67e-05
416.6 K | 6.39e-05
418.6 K | 7.84e-05
419.6 K | 8.46e-05
420.8 K | 0.0001032
424.7 K | 0.0001278
430.1 K | 0.0002146

CC(C)[C@@H](C)/C=C/[C@@H](C)[C@H]1CC[C@H]2C3=CC=C4C[C@@H](O)CC[C@]4(C)[C@H]3CC[C@]12C [(22E)-ergosta-5,7,22-trien-3β-ol]
Crystal, Calculated from knudsen effusion weight loss
Conditions | vapor or sublimation pressure [kPa]
381.3 K | 3.1e-06
383.8 K | 4.4e-06
386.5 K | 5.6e-06
394.4 K | 1.42e-05
399.6 K | 2.6e-05
402.3 K | 3.54e-05
404.6 K | 4.47e-05
407.2 K | 5.91e-05
412.3 K | 0.0001027

Conditions | Normal melting temperature [°C]
Crystal | 158

CC(C)CCC[C@@H](C)[C@H]1CC[C@H]2[C@@H]3CC=C4C[C@@H](O)CC[C@]4(C)[C@H]3CC[C@]12C [.DELTA.5-cholesten-3β-ol]
Crystal, Calculated from knudsen effusion weight loss
Conditions | vapor or sublimation pressure [kPa]
386.6 K | 1.18e-05
392 K | 2.13e-05
397.3 K | 3.95e-05
403.1 K | 7.14e-05
408.2 K | 0.0001251
413.8 K | 0.0002146

Conditions | Normal melting temperature [°C]
Crystal | 148
